We go through two molecules from US9533983B2, “Antiplatelet agent” (Mitsubishi Tanabe Pharma Corporation, priority 2009, dated 2017).

What all share (assay type): cell-based
Holding throughout (settings): Cavia porcellus, guinea pig PRP

For experiment [1], the system named is Collagen-Induced Platelet Aggregation. The experiment in a line: Platelet aggregation inhibitory activity: collagen-induced platelet aggregation in platelet rich plasma. A digest of the protocol: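 Guinea-pig citrated platelet-rich plasma incubated with compound 1 min at 37° C, stirred 1 min, then aggregation induced with collagen and measured by light transmittance, platelet-poor plasma set as 100%. Aggregation rates at each concentration gave the IC50.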

Experiment [2] relates to Ristocetin-Induced Platelet Aggregation. The experiment can be described thus: Platelet aggregation inhibitory activity: ristocetin-induced platelet aggregation in platelet rich plasma. A digest of the protocol: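 Guinea pig citrated platelet-rich plasma preincubated with compound at 37 °C for 1 min, stirred 1 min, then aggregation induced with ristocetin. Light transmittance measured with PPP set as 100%. IC50 derived from aggregation rates across compound concentrations.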

In experiment [3] the test system is ADP-Induced Platelet Aggregation. The experiment can be described thus: Platelet aggregation inhibitory activity: ADP-induced platelet aggregation in platelet rich plasma. As to the method: A blood of a guinea pig was sampled by using a 1/10 volume of a 3.8% sodium citrate as a platelet aggregation inhibitor, and a platelet rich plasma (PRP) was separated by centrifuging the blood sample at 1100 rpm for 10 min. After fractionating the PRP in the upper layer, the lower layer was centrifuged at 3000 rpm for 10 min to fractionate the platelet poor plasma (PPP). To 100 μL of PRP, a 1 μL solution of each compound was added, and after still standing at 37° C. for 1 min, the mixture was stirred at 37° C. for 1 min by a stirrer. Then, 11 μL of collagen, ristocetin, or ADP was added thereto to induce the platelet aggregation. The platelet aggregation ability was measured by using the mCM hematolaser 313M (L-M-S Inc.). Based on the assumption that a light transmittance of PPP corresponds to a 100% coagulation value, an aggregation rate at each concentration of the compound was determined, then, an IC50 value was calculated therefrom.
[Platelet Aggregation Inhibitory Activities: ADP-Induced Platelet Aggregation]

Some results are limits rather than exact numbers.

By IC50 is commonly meant the concentration needed to halve the response being measured. A low value points to greater potency. On to `COc1ccc(-c2c3ncc(C(F)(F)F)cc3nn2-c2ccccn2)cn1` [Example 186, 3-(6-methoxypyridin-3-yl)-2-pyridin-2-yl-6-(trifluoromethyl)-2H-pyrazolo[4,3-b]pyridine], for which the IC50 in experiment [1] is 16 nM; in experiment [2], 9 nM; in experiment [3], greater than 10000 nM.
`COc1ccc(-c2c(-c3ccc(F)cn3)nn3cc(C(F)(F)F)cnc23)cn1` [Example 192, 2-(5-fluoropyridin-2-yl)-3-(6-methoxypyridin-3-yl)-6-(trifluoromethyl)pyrazolo[1,5-a]pyrimidine]: the values for the half-inhibitory concentration (IC50) in experiment [1], in experiment [2] and in experiment [3] were 60 nM, 27 nM and greater than 10000 nM, respectively.
